Where no end group is shown, it is not given here.
Tests used:
[1] = test system: B16-F1 mouse melanoma cells; experiment: Melanin content measurement (extracellular and intracellular) in B16 cells; type: cell-based; details: relative to control
Protocol: (§1) B16-F1 mouse melanoma cells (CRL-6323) were obtained and cultured in DMEM containing 10 percent fetal bovine serum, 100 units per milliliter (U/mL) penicillin, 0.1 mg/mL streptomycin, and 0.25 microgram per milliliter (μg/mL) amphotericin B at 37 degrees Celsius in a humidified 95 percent air/5 percent CO2 incubator. Drug treatment began 24 hours after seeding. Cells were harvested 72 hours later and melanin content and tyrosinase activity determined in triplicate.
Extracellular melanin was estimated spectro-photometrically based on its absorption of light at 475 nanometers. After 72 hours treatment period, medium was collected and centrifuged (800×g for 10 minutes) and absorbance read at 475 nanometers. For intracellular melanin content, cells were collected by centrifugation and resuspended in PBS. Aliquots were removed for cell counting and protein estimation. To the remaining suspension, an equal volume of ethanol:ether (1:1 volume to volume) was added in order to remove opaque substances other than melanin which is not soluble in ethanol/ether (see, for example, Oikawa et al., Yale J. Biol. Med., 1973, 46: 500-507). After further centrifugation at 3000×g for 5 minutes, the precipitate was solubilized by treatment with 1 milliliter of 1 N NaOH solution at 80 degrees Celsius for 30 minutes in capped tubes. The absorbance was measured at 475 nanometers and compared to a standard curve prepared from standard dopa-melanin dissolved in the same solution. Melanin content per microgram (μg) cellular protein was calculated and expressed as a percentage of control.
FIGS. 2A-2B show the effect of P9 and P10 on extracellular and intracellular melanin content. […] In a specific embodiment, general materials and methods include 3×10E5 B16 cells per well incubated for 72 hours. Control wells had media only. Other treatments were 600 micromolar L-tyrosine; 50 microgram per milliliter scoparone; 300 micromolar IBMX; 300 micromolar P9; and 300 micromolar P10. Data are expressed as a percentage of the control and are mean±SEM of three separate experiments and analyzed by one-way ANOVA. On the graph, for the bar corresponding to extracellular data (indicated by “*”), P<0.01 versus extracellular control, and for the second bar corresponding to intracellular data (indicated by “**”), P<0.01 versus intracellular control.

[2] = test system: purified mushroom tyrosinase; experiment: Allosteric activation of tyrosinase after inhibition by 6BH4; type: biochemical
Protocol: To investigate the mechanism by which P9 and P10 exert their stimulatory effect on tyrosinase, 6BH4, an allosteric inhibitor of tyrosinase, was used in an experiment. In a 96-well plate, control wells containing substrate L-tyrosine, purified mushroom tyrosinase, and PBS (pH 6.8) were incubated at 37 degrees Celsius and periodically read at 475 nanometers. After 6 minutes, 20 micromolar 6BH4 was added to all wells except controls. At minute 12, the other triplicate wells received one of the following reagents: 20 micromolar of α-MSH, 100 micromolar of P4, P9, or P10, or 200 micromolar L-tyrosine.
In a 96-well plate the control wells contained substrate L-tyrosine, purified mushroom tyrosinase and PBS (pH 6.8). The plate was incubated at 37 degrees Celsius and periodically read at 475 nanometers. After six minutes, 6BH4 was added to all wells except the control triplicate. At minute 12, the other triplicate wells received one of the following reagents: 10 micromolar of α-MSH, 100 micromolar of P4, P9 or P10, and 200 micromolar L-tyrosine. Data shown are mean±SEM of three independent runs.

[3] = MTT proliferation and viability assay; type: cell-based; details: mouse, B16 cells, percentage of control, read-out: proliferation rate
Protocol: Proliferation rates were determined using a general cell proliferation kit (e.g., TACS® MTT Cell Proliferation Kit from R&D systems). Cells were plated at 2.5×10E4 per well in 96-well plates in a humidified atmosphere with 5 percent CO2 at 37 degrees Celsius. Twenty-four hours after plating, test samples were added and cultures were incubated for an additional 72 hours. The remainder of the procedure was performed following the manufacturer's protocol.
(§2) For the tyrosinase activity, the reaction mixture containing 100 microliter of freshly prepared substrate solution [0.1 percent L-DOPA in 0.1 moles per liter sodium phosphate (pH 6.8)] and 50 microliters of enzyme solution was incubated at 37 degrees Celsius. The absorbance change was measured during the first 10 minutes of the reaction while the increase of the absorbance was linear, and corrections for auto-oxidation of L-DOPA in the controls were made. Activities were expressed as a percentage of the control cells. MTT was performed following the manufacturer's protocol. Data are expressed as a percentage of control and are mean±SEM of three separate experiments.

mushroom tyrosinase = experiment: Assay of mushroom tyrosinase activity (L-tyrosine substrate, dopachrome at 475 nm); type: biochemical; details: for mushroom tyrosinase activity increase: 1 millimolar
Protocol: The effect of pentapeptides P9 and P10 on mushroom tyrosinase activity was determined in vitro using L-tyrosine as the substrate (see, for example, Piao et al., Chem. Pharm. Bull. (Tokyo), 2002, 50: 309-311). The experiment was conducted in a 96-well flat-bottomed plate. Each well contained 80 microliters of 0.067 molar potassium phosphate buffer (pH 6.8), 40 microliters of 5 milligrams per milliliter L-tyrosine dissolved in 0.067 molar potassium phosphate buffer (pH 6.8), 40 microliters of the different concentrations of P9 or P10 dissolved in the same buffer, and 40 microliters of 480 units per milliliter mushroom tyrosinase solution. The final volume of each well was 200 microliters, containing […] L-tyrosine, 96 units per millileter tyrosinase and varying concentrations of P9 or P10, ranging from 30 micromolar to 1 millimolar. In the control wells, P9 and P10 were substituted with buffer solution and adjusted to a 200 microliters total volume. The assay mixture was incubated at 37 degrees Celsius and optical density (OD), which correlates to the amount of dopachrome produced, was measured periodically at 475 nanometers using a microplate reader (e.g., a Varioskan microplate reader from Thermo Electron Corporation).
FIGS. 4A and 4B show mushroom tyrosinase activity increased by 123±4 percent and 156±4 percent at 1 millimolar P9 and P10, respectively. […] In the control wells, the reaction mix included purified mushroom tyrosinase, PBS (pH 6.8) and substrate L-tyrosine. In the other triplicate wells, P9 or P10 were added at various concentrations. The reaction was incubated at 37 degrees Celsius and the plate was read periodically at 475 nanometers.

B16 tyrosinase = biological target: T1, B16 tyrosinase (Mus musculus, UniProt P11344); experiment: Assay of B16 tyrosinase activity (DOPA oxidase activity); type: cell-based; details: for B16 tyrosinase activity increase: 72 hours incubation, relative to control cells; for EC50: approximate, see FIG. 3, read-out: EC 50 (dose that produces half the maximum response)
T1 construct: host or cells: B16-F1 mouse melanoma cells
T1 sequence (P11344 19-533): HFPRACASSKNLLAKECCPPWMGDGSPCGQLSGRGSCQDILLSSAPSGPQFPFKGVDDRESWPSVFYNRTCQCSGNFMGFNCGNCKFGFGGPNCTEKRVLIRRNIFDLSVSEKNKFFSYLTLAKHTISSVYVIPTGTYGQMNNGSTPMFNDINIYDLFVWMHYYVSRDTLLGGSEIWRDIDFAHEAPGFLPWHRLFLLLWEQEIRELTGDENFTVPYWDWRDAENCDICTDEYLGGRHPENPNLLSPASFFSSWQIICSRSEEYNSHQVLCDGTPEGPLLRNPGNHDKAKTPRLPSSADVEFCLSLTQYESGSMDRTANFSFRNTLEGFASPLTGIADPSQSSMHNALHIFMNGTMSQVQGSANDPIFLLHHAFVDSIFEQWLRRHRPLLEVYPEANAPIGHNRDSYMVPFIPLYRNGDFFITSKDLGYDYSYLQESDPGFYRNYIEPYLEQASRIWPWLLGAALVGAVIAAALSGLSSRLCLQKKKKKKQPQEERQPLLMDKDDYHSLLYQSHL
Protocol: as §1
Tyrosinase activity was assayed as DOPA oxidase activity. This can be according to traditional or modified assaying methods (see, for example, Yang et al., Acta Pharmacol. Sin. 2006, 27: 1467-1473). Cells were washed twice with PBS and lysed with 20 […] (mmol/L) Tris-0.1 percent Triton X-100 (pH 7.5). Tyrosinase activity was analyzed spectrophotometrically by following the oxidation of DOPA to DOPAchrome at 475 nanometers. The reaction mixture containing 100 microliter (μL) of freshly prepared substrate solution [0.1 percent L-DOPA in 0.1 mol/L sodium phosphate (pH 6.8)] and 50 microliters (μL) of enzyme solution was incubated at 37 degrees Celsius. Absorbance change was measured during the first 10 minutes of the reaction while the increase of the absorbance was linear, and corrections for auto-oxidation of L-DOPA in the controls were made. Activities were expressed as a percentage of control cells.
as §2

[4] = 300 micromolar, 72 hours incubation
[5] = 10 micromolar α-MSH added at minute 12 after 6BH4
[6] = 600 micromolar L-tyrosine, 72 hours

In the case of `COc1cc2ccc(=O)oc2cc1OC` [scoparone, Scoparone], the “intracellular melanin content increase” value ([1]; 50 microgram per milliliter scoparone, 72 hours) is reported as 53±6.9%.
With `C[C@H](O)[C@H](O)[C@H]1CNc2nc(N)[nH]c(=O)c2N1` [6BH4, (6R)-L-erythro-5,6,7,8-tetrahydrobiopterin] the “inhibition of tyrosinase activity” value ([2]; 20 micromolar 6BH4 added after 6 minutes) was “inhibited completely”.
For YSSWY [P9, YSSWY], the viability at 72 h, 10 millimolar [3] was 94 ± 2%, the “mushroom tyrosinase activity increase” value (mushroom tyrosinase) was 123±4% and the dopachrome formation increase (mushroom tyrosinase; 30 micromolar) was 28±3%. The dopachrome formation increase (mushroom tyrosinase; 300 micromolar) was 100±3%, the “B16 tyrosinase activity increase” value (B16 tyrosinase; 3 millimolar) was 84±3% and the “B16 tyrosinase activity increase” value (B16 tyrosinase; 300 micromolar) was 38±4%. The EC50 (B16 tyrosinase) was about 300 µM, the “extracellular melanin content increase” value [1, 4] was 170% and the “intracellular melanin content increase” value [1, 4] was 47±6%.
For YRSRK [P10, YRSRK], the viability at 72 h, 10 millimolar [3] was 95 ± 2%, the “mushroom tyrosinase activity increase” value (mushroom tyrosinase) was 156±4% and the dopachrome formation increase (mushroom tyrosinase; 30 micromolar) was 45±3%. The dopachrome formation increase (mushroom tyrosinase; 300 micromolar) was 134±3%, the “B16 tyrosinase activity increase” value (B16 tyrosinase; 3 millimolar) was 91±6% and the “B16 tyrosinase activity increase” value (B16 tyrosinase; 300 micromolar) was 48±5%. The EC50 (B16 tyrosinase) was about 300 µM and the “intracellular melanin content increase” value [1, 4] was 62±6%.
In the case of `CC(C)Cn1c(=O)n(C)c(=O)c2[nH]cnc21` [IBMX, 3-isobutyl-1-methylxanthine], the “extracellular melanin content increase” value [1, 4] is reported as 187±9% and the “intracellular melanin content increase” value [1, 4] is reported as 67±6%.
In the case of “α-Melanocyte Stimulating Hormone [α-MSH]”, the “reversal of 6BH4-dependent tyrosinase inhibition (reactivation of the enzyme)” value [2, 5] is reported as “reactivated the enzyme” and the “tyrosinase activity after reactivation, compared with control” value [2, 5] is reported as “increased its activity to levels exceeding the control”.
In the case of `N[C@@H](Cc1ccc(O)cc1)C(=O)O` [L-tyrosine], the “reversal of 6BH4-dependent tyrosinase inhibition” value ([2]; 200 micromolar L-tyrosine added at minute 12 after 6BH4) is reported as “neither the addition of P4 nor L-tyrosine reversed”, the “extracellular melanin content increase” value [1, 6] is reported as 43±5% and the “intracellular melanin content increase” value [1, 6] is reported as 7±3%.

From patent US9567368B2, “Peptide tyrosinase activators” (Escape Therapeutics, Inc., priority 2013, dated 2017)
